The values that follow come from patent US9573913B2, “Cathepsin cysteine protease inhibitors” (Merck Sharp & Dohme Corp., priority 2013, dated 2017).

The target of one test is T1, human cathepsin F (Homo sapiens, UniProt Q9UBX1).
T1 sequence (Q9UBX1 271-484): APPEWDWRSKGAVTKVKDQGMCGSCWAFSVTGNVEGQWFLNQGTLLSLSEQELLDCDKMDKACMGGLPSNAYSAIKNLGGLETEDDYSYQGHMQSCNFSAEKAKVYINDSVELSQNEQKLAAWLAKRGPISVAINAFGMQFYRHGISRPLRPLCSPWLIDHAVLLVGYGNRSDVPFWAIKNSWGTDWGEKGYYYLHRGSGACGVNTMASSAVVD
Briefly: Cathepsin F assay (hCat F). It counts as biochemical. As to conditions: Z-Phe-Arg-AMC substrate, pH 5.5, 15 min preincubation; read-out: hCat F (IP (nM)). A digest of the protocol: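 AMC release from Z-Phe-Arg-AMC, added at 8 μM, was monitored fluorometrically (360/460 nm) for 20 min after 10 nM enzyme and compound had been preincubated 15 min at room temperature. Buffer: MES 50 mM pH 5.5, EDTA and DTT 2.5 mM each, 10% DMSO. Compound DMSO dilutions spanned 500–0.025 μM (3-fold). Dose-response fitting gave % inhibition.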

The target in a further test is human cathepsin K (UniProt P43236). Briefly: Cathepsin K Assay (hrbCat K). The format is biochemical. The note with it: Z-Leu-Arg-AMC substrate, pH 5.5, 15 min preincubation; read-out: hrbCat K (IP (nM)). A digest of the protocol:
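Human cathepsin K (0.4 nM) was preincubated 15 min at room temperature with compound in 50 mM MES pH 5.5, 2.5 mM EDTA, 2.5 mM DTT and 10% DMSO. Inhibition was fitted to a dose-response model.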

For the molecule `Cc1ccc(-c2nc([C@@H]3CCCC[C@H]3C(=O)NC3(C#N)CC3)c(-c3ccc(N4CCS(=O)(=O)CC4)cc3)s2)nn1` [Example 83, (1R,2R)-N-(1-cyanocyclopropyl)-2-(5-(4-(1,1-dioxidothiomorpho-lino)phenyl)-2-(6-methylpyridazin-3-yl)thiazol-4-yl)cyclohexane-carboxamide], the IC50 worked out at 1110 nM at human cathepsin F and 1.4 nM at human cathepsin K.
On to `N#Cc1ccc(-c2nc([C@@H]3CCCC[C@H]3C(=O)NC3(C#N)CC3)c(-c3ccc(N4CCS(=O)(=O)CC4)cc3)s2)cc1` [Example 84, (1R,2R)-N-(1-cyanocyclopropyl)-2-(2-(4-cyanophenyl)-5-(4-(1,1-dioxidothiomorpho-lino)phenyl)thiazol-4-yl)cyclohexane-carboxamide], for which the IC50 at human cathepsin F stood at 1410 nM; at human cathepsin K, 0.7 nM.
With `CS(=O)(=O)C1CN(c2ccc(-c3sc(-c4cncc(Cl)c4)nc3[C@@H]3CCCC[C@H]3C(=O)NC3(C#N)CC3)cc2)C1` [Example 85, (1R,2R)-2-(2-(5-chloropyridin-3-yl)-5-(4-(3-(methylsulfonyl)azetidin-1-yl)phenyl)thiazol-4-yl)-N-(1-cyanocyclopropyl) cyclohexanecarbox-amide], the IC50 at human cathepsin F was 1090 nM; at human cathepsin K, 2.1 nM.
Consider `COc1ccc(-c2nc([C@@H]3CCCC[C@H]3C(=O)NC3(C#N)CC3)c(-c3ccc(N4CCS(=O)(=O)CC4)cc3)s2)cn1` [Example 86, (1R,2R)-N-(1-cyanocyclopropyl)-2-(5-(4-(1,1-dioxidothiomorpho-lino)phenyl)-2-(6-methoxypyridin-3-yl)thiazol-4-yl)cyclohexane-carboxamide], for which the IC50 on human cathepsin F turned out to be 3330 nM; at human cathepsin K, 1.8 nM.
The corresponding values for `N#Cc1cc(Cl)ccc1-c1nc([C@@H]2CCCC[C@H]2C(=O)NC2(C#N)CC2)c(-c2ccc(N3CCS(=O)(=O)CC3)cc2)s1` [Example 87, (1R,2R)-2-(2-(4-chloro-2-cyanophenyl)-5-(4-(1,1-dioxidothiomorpho-lino)phenyl)thiazol-4-yl)-N-(1-cyanocyclopropyl) cyclohexanecarbox-amide] are 7780 nM and 6.7 nM.
For `N#CC1(NC(=O)[C@@H]2CCCC[C@H]2c2nc(-c3cncc(C(F)(F)F)c3)sc2-c2ccc(N3CCS(=O)(=O)CC3)cc2)CC1` [Example 88, (1R,2R)-N-(1-cyanocyclopropyl)-2-(5-(4-(1,1-dioxidothiomorpho-lino)phenyl)-2-(5-(trifluoromethyl)pyridin-3-yl)thiazol-4-yl)cyclohexane-carboxamide], in that order: 1400 nM and 1.5 nM.
For the molecule `N#CC1(NC(=O)[C@@H]2CCCC[C@H]2c2nc(N3CCCCC3)sc2-c2ccc(N3CCS(=O)(=O)CC3)cc2)CC1` [Example 89, (1R,2R)-N-(1-cyanocyclopropyl)-2-(5-(4-(1,1-dioxidothiomorpho-lino)phenyl)-2-(piperidin-1-yl)thiazol-4-yl)cyclohexane-carboxamide], the IC50 on human cathepsin F came out at 1000 nM; on human cathepsin K, 3 nM.
For `N#CC1(NC(=O)[C@@H]2CCCC[C@H]2c2nc(-c3ccc(C(F)(F)F)cn3)sc2-c2ccc(N3CCS(=O)(=O)CC3)cc2)CC1` [Example 90, (1R,2R)-N-(1-cyanocyclopropyl)-2-(5-(4-(1,1-dioxidothiomorpho-lino)phenyl)-2-(5-(trifluoromethyl)pyridin-2-yl)thiazol-4-yl)cyclohexane-carboxamide], the IC50 at human cathepsin F was found to be 1280 nM; on human cathepsin K, 2.2 nM.
For the molecule `Cc1nc(-c2nc([C@@H]3CCCC[C@H]3C(=O)NC3(C#N)CC3)c(-c3ccc(N4CCS(=O)(=O)CC4)cc3)s2)cs1` [Example 91, (1R,2R)-N-(1-cyanocyclopropyl)-2-(5-(4-(1,1-dioxidothiomorpho-lino)phenyl)-2′-methyl-[2,4′-bithiazol]-4-yl)cyclohexane-carboxamide], the IC50 on human cathepsin F was found to be 1110 nM; at human cathepsin K it was 3.3 nM.
For the molecule `CC(C)(C)c1ccc(-c2nc([C@@H]3CCCC[C@H]3C(=O)NC3(C#N)CC3)c(-c3ccc(N4CCS(=O)(=O)CC4)cc3)s2)cn1` [Example 92, (1R,2R)-2-(2-(6-(tert-butyl)pyridin-3-yl)-5-(4-(1,1-dioxidothiomorpho-lino)phenyl)thiazol-4-yl)-N-(1-cyanocyclopropyl) cyclohexanecarbox-amide], the IC50 on human cathepsin F was 3330 nM; at human cathepsin K it was 3 nM.
On to `CC1(C)CC(c2nc([C@@H]3CCCC[C@H]3C(=O)NC3(C#N)CC3)c(-c3ccc(N4CCS(=O)(=O)CC4)cc3)s2)CC(C)(C)O1` [Example 93, (1R,2R)-N-(1-cyanocyclopropyl)-2-(5-(4-(1,1-dioxidothiomorpho-lino)phenyl)-2-(2,2,6,6-tetramethyltetrahydro-2H-pyran-4-yl)thiazol-4-yl)cyclohexane-carboxamide], for which the IC50 at human cathepsin F is at least 10000 nM; at human cathepsin K, 14.1 nM.
Consider `N#CC1(NC(=O)[C@@H]2CCCC[C@H]2c2nc(-c3c(F)cccc3F)sc2-c2ccc(N3CCS(=O)(=O)CC3)cc2)CC1` [Example 94, (1R,2R)-N-(1-cyanocyclopropyl)-2-(2-(2,6-difluorophenyl)-5-(4-(1,1-dioxidothiomorpho-lino)phenyl)thiazol-4-yl)cyclohexane-carboxamide], for which the IC50 at human cathepsin F was at least 10000 nM; at human cathepsin K it was 5.5 nM.
The corresponding values for `Cc1cc(C#N)ccc1-c1nc([C@@H]2CCCC[C@H]2C(=O)NC2(C#N)CC2)c(-c2ccc(N3CCS(=O)(=O)CC3)cc2)s1` [Example 95, (1R,2R)-2-(2-(4-cyano-2-methylphenyl)-5-(4-(1,1-dioxidothiomorpho-lino)phenyl)thiazol-4-yl)-N-(1-cyanocyclopropyl) cyclohexanecarbox-amide] are 1120 nM and 3.6 nM.
Take `N#CC1(NC(=O)[C@@H]2CCCC[C@H]2c2nc(-c3ccnc(C(F)(F)F)c3)sc2-c2ccc(N3CCS(=O)(=O)CC3)cc2)CC1` [Example 96, (1R,2R)-N-(1-cyanocyclopropyl)-2-(5-(4-(1,1-dioxidothiomorpho-lino)phenyl)-2-(2-(trifluoromethyl)pyridin-4-yl)thiazol-4-yl)cyclohexane-carboxamide]: the IC50 on human cathepsin F was determined as 1920 nM; on human cathepsin K it was 2.1 nM.
`COc1cncc(F)c1-c1nc([C@@H]2CCCC[C@H]2C(=O)NC2(C#N)CC2)c(-c2ccc(N3CCS(=O)(=O)CC3)cc2)s1` [Example 97, (1R,2R)-N-(1-cyanocyclopropyl)-2-(5-(4-(1,1-dioxidothiomorpho-lino)phenyl)-2-(3-fluoro-5-methoxypyridin-4-yl)thiazol-4-yl)cyclohexane-carboxamide]: the IC50 on human cathepsin F is 3080 nM; on human cathepsin K, 2.8 nM.
The corresponding values for `N#CC1(NC(=O)[C@@H]2CCCC[C@H]2c2nc(-c3cnc(C(F)(F)F)nc3)sc2-c2ccc(N3CCS(=O)(=O)CC3)cc2)CC1` [Example 98, (1R,2R)-N-(1-cyanocyclopropyl)-2-(5-(4-(1,1-dioxidothiomorpho-lino)phenyl)-2-(2-(trifluoromethyl)pyrimidin-5-yl)thiazol-4-yl)cyclohexane-carboxamide] are 1600 nM and 0.6 nM.
With `N#CC1(NC(=O)[C@@H]2CCCC[C@H]2c2nc(-c3cnc(C4CC4)c(F)c3)sc2-c2ccc(N3CCS(=O)(=O)CC3)cc2)CC1` [Example 99, (1R,2R)-N-(1-cyanocyclopropyl)-2-(2-(6-cyclopropyl-5-fluoropyridin-3-yl)-5-(4-(1,1-dioxidothiomorpho-lino)phenyl)thiazol-4-yl)cyclohexane-carboxamide], the IC50 at human cathepsin F is 3330 nM; at human cathepsin K it was 1.7 nM.
As to `CC1(C)CN(c2nc([C@@H]3CCCC[C@H]3C(=O)NC3(C#N)CC3)c(-c3ccc(N4CCS(=O)(=O)CC4)cc3)s2)CC(C)(C)O1` [Example 101, (1R,2R)-N-(1-cyanocyclopropyl)-2-(5-(4-(1,1-dioxidothiomorpho-lino)phenyl)-2-(2,2,6,6-tetramethylmorpho-lino)thiazol-4-yl)cyclohexane-carboxamide], the results for the IC50 at human cathepsin F and on human cathepsin K were at least 10000 nM and 48.8 nM, respectively.
For the molecule `N#CC1(NC(=O)[C@@H]2CCCC[C@H]2c2nc(N3CCC4(CC3)CC4)sc2-c2ccc(N3CCS(=O)(=O)CC3)cc2)CC1` [Example 102, (1R,2R)-N-(1-cyanocyclopropyl)-2-(5-(4-(1,1-dioxidothiomorpho-lino)phenyl)-2-(6-azaspiro[2.5]octan-6-yl)thiazol-4-yl)cyclohexane-carboxamide], the IC50 at human cathepsin F is 1000 nM; on human cathepsin K, 2.4 nM.
With `N#CC1(NC(=O)[C@@H]2CCCC[C@H]2c2nc(N3CCOC(c4ccccc4)C3)sc2-c2ccc(N3CCS(=O)(=O)CC3)cc2)CC1` (stereo partly drawn) [Example 103, (1R,2R)-N-(1-cyanocyclopropyl)-2-(5-(4-(1,1-dioxidothiomorpho-lino)phenyl)-2-(2-phenylmorpholino)thiazol-4-yl)cyclohexane-carboxamide], the IC50 on human cathepsin F amounted to 1000 nM; on human cathepsin K it was 1.2 nM.
With `N#CC1(NC(=O)[C@@H]2CCCC[C@H]2c2nc(N3CCCC(F)(F)C3)sc2-c2ccc(N3CCS(=O)(=O)CC3)cc2)CC1` [Example 106, (1R,2R)-N-(1-cyanocyclopropyl)-2-(2-(3,3-difluoropiperidin-1-yl)-5-(4-(1,1-dioxidothiomorpho-lino)phenyl)thiazol-4-yl)cyclohexane-carboxamide], the figures for the IC50 on human cathepsin F and at human cathepsin K were at least 10000 nM and 2.9 nM, respectively.
